Measured values as given in the kinase profiling compilation of Christmann-Franck et al. (2016).

Experiments:
Test in all cases: KINOMEscan competition binding
Conditions in all cases: compound 0.1 µM
[1] = target: ERBB4 (human) (UniProt Q15303)
[2] = target: MATK (human) (UniProt P42679)
[3] = target: EPHB3 (human) (UniProt P54753)
[4] = target: NEK4 (human) (UniProt P51957)
[5] = target: MAPK10 (human) (UniProt P53779)
[6] = target: WEE2 (human) (UniProt P0C1S8)
[7] = target: FGFR1 (human) (UniProt P11362)
[8] = test system: CPK1 (P.falciparum)
[9] = target: CDKL3 (human) (UniProt Q8IVW4)
[10] = target: PIM2 (human) (UniProt Q9P1W9)
[11] = target: TNK2 (human) (UniProt Q07912)
[12] = test system: ABL1 (human), P00519 [F317L]
[13] = target: EPHA5 (human) (UniProt P54756)
[14] = target: MAPK15 (human) (UniProt Q8TD08)
[15] = target: ITK (human) (UniProt Q08881)
[16] = target: PI4KB (human) (UniProt Q9UBF8)
[17] = target: CAMK4 (human) (UniProt Q16566)
[18] = target: CSNK2A2 (human) (UniProt P19784)
[19] = target: CAMK1D (human) (UniProt Q8IU85)
[20] = target: NEK10 (human) (UniProt Q6ZWH5)
[21] = target: AKT1 (human) (UniProt P31749)
[22] = target: MAPKAPK2 (human) (UniProt P49137)
[23] = target: CLK4 (human) (UniProt Q9HAZ1)
[24] = target: RPS6KA6 KD2 (human) (UniProt Q9UK32)
[25] = target: PIM3 (human) (UniProt Q86V86)
[26] = target: EPHB4 (human) (UniProt P54760)
[27] = target: CDK4 CCND1 (human) (UniProt P11802+P24385)
[28] = test system: ALK (human), Q9UM73 [C1156Y]
[29] = test system: ABL1 (human), P00519 [Q252H]
[30] = target: ANKK1 (human) (UniProt Q8NFD2)
[31] = target: RPS6KA3 KD2 (human) (UniProt P51812)
[32] = target: LIMK2 (human) (UniProt P53671)
[33] = target: CDK13 (human) (UniProt Q14004)
[34] = target: SRC (human) (UniProt P12931)
[35] = target: PIK3CA (human) (UniProt P42336)
[36] = target: PRKACB (human) (UniProt P22694)
[37] = test system: KIT (human), P10721 [D816V]
[38] = target: PIK3CG (human) (UniProt P48736)
[39] = target: CDK5 (human) (UniProt Q00535)
[40] = test system: FLT3 (human), P36888 [D835H]

KIT (human), P10721 [D816V], sequence (P10721 whole entry D816V, looked up): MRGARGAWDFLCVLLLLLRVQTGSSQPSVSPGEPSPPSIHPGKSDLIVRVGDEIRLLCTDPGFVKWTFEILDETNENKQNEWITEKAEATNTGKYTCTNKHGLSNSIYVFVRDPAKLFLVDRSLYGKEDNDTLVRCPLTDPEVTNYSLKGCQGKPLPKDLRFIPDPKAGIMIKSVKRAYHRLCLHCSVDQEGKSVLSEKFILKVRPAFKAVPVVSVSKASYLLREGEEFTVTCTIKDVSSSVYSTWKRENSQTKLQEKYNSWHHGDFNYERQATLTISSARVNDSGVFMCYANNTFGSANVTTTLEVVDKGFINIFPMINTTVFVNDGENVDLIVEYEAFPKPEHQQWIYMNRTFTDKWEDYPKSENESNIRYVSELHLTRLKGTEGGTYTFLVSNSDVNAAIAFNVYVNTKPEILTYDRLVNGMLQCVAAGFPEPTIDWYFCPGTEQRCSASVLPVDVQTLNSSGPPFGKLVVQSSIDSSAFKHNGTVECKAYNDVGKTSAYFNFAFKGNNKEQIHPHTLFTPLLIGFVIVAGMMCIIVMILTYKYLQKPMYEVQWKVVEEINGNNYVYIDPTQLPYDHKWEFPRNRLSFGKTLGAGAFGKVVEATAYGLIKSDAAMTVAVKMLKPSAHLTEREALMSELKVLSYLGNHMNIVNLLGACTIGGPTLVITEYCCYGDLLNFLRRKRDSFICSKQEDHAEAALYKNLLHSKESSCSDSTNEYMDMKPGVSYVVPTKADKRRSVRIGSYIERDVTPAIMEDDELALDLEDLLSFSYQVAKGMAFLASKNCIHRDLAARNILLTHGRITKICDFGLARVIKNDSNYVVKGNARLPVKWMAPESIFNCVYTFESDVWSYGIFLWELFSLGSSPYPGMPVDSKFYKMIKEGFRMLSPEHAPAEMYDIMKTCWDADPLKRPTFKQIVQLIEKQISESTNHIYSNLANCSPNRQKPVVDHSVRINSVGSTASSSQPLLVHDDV
PIK3CG (human), sequence (P48736 whole entry, looked up): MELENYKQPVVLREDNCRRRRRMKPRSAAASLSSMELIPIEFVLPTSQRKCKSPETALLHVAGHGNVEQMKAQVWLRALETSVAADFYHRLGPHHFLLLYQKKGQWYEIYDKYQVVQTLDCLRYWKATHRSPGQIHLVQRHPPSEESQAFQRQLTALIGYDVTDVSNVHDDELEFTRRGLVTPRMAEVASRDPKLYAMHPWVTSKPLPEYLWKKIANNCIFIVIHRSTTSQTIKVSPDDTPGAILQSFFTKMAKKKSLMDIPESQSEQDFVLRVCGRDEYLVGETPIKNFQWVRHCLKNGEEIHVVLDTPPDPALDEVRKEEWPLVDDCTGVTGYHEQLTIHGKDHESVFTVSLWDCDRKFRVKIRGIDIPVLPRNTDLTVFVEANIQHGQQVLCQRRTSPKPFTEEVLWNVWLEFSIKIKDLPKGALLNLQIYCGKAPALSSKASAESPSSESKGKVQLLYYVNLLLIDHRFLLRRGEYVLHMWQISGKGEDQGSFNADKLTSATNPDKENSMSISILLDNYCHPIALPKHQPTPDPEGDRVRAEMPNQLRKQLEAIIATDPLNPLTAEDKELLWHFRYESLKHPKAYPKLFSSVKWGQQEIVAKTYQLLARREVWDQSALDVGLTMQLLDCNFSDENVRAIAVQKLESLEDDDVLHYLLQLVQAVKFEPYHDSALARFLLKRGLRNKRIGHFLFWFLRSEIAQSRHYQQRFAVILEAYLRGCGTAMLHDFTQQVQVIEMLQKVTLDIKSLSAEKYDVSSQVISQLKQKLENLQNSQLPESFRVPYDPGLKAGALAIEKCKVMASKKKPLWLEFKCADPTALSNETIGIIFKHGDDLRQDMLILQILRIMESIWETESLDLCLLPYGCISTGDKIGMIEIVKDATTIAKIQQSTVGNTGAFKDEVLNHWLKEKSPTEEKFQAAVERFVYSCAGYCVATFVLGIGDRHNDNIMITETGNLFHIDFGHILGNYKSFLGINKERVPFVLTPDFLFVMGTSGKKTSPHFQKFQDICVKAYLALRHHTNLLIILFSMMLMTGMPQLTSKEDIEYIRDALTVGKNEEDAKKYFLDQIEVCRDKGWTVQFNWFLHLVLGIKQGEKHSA
SRC (human), sequence (P12931 whole entry, looked up): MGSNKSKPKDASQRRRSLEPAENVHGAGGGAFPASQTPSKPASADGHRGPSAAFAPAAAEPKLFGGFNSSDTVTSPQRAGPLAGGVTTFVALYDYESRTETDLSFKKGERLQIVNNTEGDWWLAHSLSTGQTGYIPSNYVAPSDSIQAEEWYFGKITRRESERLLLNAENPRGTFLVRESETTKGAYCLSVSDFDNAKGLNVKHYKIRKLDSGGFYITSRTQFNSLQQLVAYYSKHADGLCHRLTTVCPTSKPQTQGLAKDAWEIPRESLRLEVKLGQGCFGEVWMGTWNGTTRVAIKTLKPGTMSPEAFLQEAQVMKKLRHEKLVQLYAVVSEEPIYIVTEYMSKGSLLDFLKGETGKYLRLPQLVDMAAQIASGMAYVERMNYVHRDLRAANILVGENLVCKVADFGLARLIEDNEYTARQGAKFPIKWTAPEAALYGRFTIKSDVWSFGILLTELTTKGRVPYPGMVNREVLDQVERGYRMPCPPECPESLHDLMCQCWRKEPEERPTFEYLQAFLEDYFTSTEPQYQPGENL
CAMK1D (human), sequence (Q8IU85 whole entry, looked up): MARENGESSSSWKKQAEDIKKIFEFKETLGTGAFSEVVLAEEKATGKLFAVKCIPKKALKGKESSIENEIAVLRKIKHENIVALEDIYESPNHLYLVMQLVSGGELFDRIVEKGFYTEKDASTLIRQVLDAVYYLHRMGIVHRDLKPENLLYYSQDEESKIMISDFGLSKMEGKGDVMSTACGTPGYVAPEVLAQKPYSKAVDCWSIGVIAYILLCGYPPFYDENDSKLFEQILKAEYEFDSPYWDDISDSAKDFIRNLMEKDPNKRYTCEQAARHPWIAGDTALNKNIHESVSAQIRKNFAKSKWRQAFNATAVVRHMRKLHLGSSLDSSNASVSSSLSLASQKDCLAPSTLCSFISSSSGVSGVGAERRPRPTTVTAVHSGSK
NEK10 (human), sequence (Q6ZWH5 whole entry, looked up): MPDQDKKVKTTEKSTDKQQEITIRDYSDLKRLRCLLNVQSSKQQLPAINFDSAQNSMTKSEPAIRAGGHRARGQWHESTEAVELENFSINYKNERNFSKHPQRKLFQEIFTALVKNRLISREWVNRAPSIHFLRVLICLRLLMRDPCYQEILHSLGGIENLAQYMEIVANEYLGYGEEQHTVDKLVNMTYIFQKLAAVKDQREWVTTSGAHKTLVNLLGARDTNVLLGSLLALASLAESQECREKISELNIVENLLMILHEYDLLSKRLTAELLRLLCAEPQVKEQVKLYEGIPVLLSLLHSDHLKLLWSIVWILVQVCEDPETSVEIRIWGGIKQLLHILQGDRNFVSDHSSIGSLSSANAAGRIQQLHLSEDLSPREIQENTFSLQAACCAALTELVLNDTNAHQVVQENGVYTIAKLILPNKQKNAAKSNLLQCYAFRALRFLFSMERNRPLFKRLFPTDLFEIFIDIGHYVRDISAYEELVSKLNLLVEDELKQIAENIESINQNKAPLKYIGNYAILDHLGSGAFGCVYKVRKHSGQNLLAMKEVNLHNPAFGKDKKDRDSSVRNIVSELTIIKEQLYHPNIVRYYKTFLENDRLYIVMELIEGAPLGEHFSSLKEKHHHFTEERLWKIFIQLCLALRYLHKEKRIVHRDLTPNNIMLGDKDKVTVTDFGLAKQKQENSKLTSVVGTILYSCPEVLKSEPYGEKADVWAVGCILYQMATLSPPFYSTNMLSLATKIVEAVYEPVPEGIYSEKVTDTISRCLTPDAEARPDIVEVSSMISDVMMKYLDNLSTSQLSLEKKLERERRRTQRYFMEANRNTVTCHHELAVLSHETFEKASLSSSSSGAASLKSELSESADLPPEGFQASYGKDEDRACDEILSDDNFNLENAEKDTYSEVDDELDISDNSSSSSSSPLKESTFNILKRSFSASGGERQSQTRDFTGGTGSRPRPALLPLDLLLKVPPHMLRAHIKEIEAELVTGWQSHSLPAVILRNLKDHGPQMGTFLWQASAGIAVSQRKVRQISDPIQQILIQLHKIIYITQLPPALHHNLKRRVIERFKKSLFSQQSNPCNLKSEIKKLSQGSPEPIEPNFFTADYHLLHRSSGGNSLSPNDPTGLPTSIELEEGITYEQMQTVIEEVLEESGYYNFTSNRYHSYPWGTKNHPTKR
CDK4 CCND1 (human), sequence (P11802 whole entry, looked up): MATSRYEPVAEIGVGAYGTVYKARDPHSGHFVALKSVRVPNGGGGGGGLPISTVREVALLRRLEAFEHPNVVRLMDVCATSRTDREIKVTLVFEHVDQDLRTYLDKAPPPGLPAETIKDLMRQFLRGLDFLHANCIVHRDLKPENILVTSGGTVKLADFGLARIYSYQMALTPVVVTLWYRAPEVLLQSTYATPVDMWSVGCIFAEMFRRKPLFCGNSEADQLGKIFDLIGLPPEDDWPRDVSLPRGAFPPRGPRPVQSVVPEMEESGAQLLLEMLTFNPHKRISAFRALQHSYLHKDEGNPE
CDK4 CCND1 (human), sequence (P24385 whole entry, looked up): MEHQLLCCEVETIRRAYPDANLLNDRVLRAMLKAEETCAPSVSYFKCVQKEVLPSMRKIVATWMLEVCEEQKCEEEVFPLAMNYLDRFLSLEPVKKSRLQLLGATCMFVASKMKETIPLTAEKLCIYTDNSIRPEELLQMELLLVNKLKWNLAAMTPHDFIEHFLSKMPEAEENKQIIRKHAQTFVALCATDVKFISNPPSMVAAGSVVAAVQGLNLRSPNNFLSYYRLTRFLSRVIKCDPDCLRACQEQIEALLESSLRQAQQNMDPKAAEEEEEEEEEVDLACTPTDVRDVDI

`CCc1ccc(C(=O)Nc2cc(CN3CCN(C)CC3)cc(C(F)(F)F)c2)cc1C#Cc1cnc2ccnn2c1` showed a kinase still bound, per cent of control [1] of 100%, a kinase still bound, per cent of control [2] of 100% and a kinase still bound, per cent of control [3] of 94%. For the same molecule, the kinase still bound, per cent of control [4] was 100%, the kinase still bound, per cent of control [5] was 100% and the kinase still bound, per cent of control [6] was 84%. It also gave a kinase still bound, per cent of control [7] of 84%, a kinase still bound, per cent of control [8] of 100% and a kinase still bound, per cent of control [9] of 56%. The kinase still bound, per cent of control [10] was 96%, the kinase still bound, per cent of control [11] was 96% and the kinase still bound, per cent of control [12] was 86%. It also gave a kinase still bound, per cent of control [13] of 100%, a kinase still bound, per cent of control [14] of 100% and a kinase still bound, per cent of control [15] of 100%. The kinase still bound, per cent of control [16] was 100%, the kinase still bound, per cent of control [17] was 100% and the kinase still bound, per cent of control [18] was 100%. For the same molecule, the kinase still bound, per cent of control [19] was 84%, the kinase still bound, per cent of control [20] was 100% and the kinase still bound, per cent of control [21] was 81%. The kinase still bound, per cent of control [22] was 100%, the kinase still bound, per cent of control [23] was 100% and the kinase still bound, per cent of control [24] was 100%. It also gave a kinase still bound, per cent of control [25] of 77%, a kinase still bound, per cent of control [26] of 100% and a kinase still bound, per cent of control [27] of 100%. The kinase still bound, per cent of control [28] was 97%, the kinase still bound, per cent of control [29] was 100% and the kinase still bound, per cent of control [30] was 100%. The kinase still bound, per cent of control [31] was 100%, the kinase still bound, per cent of control [32] was 100% and the kinase still bound, per cent of control [33] was 71%. For the same molecule, the kinase still bound, per cent of control [34] was 76%, the kinase still bound, per cent of control [35] was 100% and the kinase still bound, per cent of control [36] was 100%. The kinase still bound, per cent of control [37] was 81%, the kinase still bound, per cent of control [38] was 100% and the kinase still bound, per cent of control [39] was 100%. The kinase still bound, per cent of control [40] was 83%.
